Laboratory results as given in article PMC8119899, “A Single Mutation in the Outer Lipid-Facing Helix of a Pentameric Ligand-Gated Ion Channel Affects Channel Function Through a Radially-Propagating Mechanism” (Frontiers in Molecular Biosciences, 2021).
Changes are numbered by the printed parent chain.

Experiments:
WT 5-HT3A receptor = target: T1, WT 5-HT3A receptor (Mus musculus, UniProt P23979); experiment: [3H]GR65630 saturation binding, WT receptor, HEK293 cell membranes; conditions: mean and SEM, n ≥ 3
T1 construct: expressed in transfected cells; host or cells: HEK293
T1 sequence (P23979 24-483 isoform P23979-2 limits assumed): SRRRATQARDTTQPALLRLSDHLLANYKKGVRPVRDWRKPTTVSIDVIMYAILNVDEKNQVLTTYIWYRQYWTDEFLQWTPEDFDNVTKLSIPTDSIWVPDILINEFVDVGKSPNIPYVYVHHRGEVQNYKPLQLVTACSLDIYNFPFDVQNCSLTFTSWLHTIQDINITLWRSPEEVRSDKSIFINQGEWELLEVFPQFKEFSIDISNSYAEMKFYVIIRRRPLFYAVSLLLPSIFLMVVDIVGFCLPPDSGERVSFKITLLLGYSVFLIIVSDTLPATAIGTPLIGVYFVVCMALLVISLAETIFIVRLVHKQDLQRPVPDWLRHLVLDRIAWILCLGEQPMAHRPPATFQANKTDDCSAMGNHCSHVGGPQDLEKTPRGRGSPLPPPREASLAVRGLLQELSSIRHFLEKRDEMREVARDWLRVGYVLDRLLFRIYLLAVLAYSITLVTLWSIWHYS
Description: (§1) The mouse 5-HT3A cDNA (Q6J1J7) in pcDNA3.1 (for HEK cell transfection) or pGEMHE (for RNA production) was modified by QuikChange site-directed mutagenesis (Agilent Technologies) to create point mutants (verified by sequencing).
(§2) Human embryonic kidney (HEK) 293 cells were maintained at 37 °C at 5% CO2 in a humidified atmosphere, in Dulbecco's Modified Eagle's Medium/Nutrient Mix F12 (1:1) (Invitrogen, Paisley, UK) with GlutaMAX^TM and 10% fetal bovine serum (GE Healthcare) (DMEM/FBS) and passaged when confluent. Five micrograms of WT or mutant 5-HT3A DNA and 30 μl polyethyleneamine (Polysciences) incubated for 10 min in 1 mL DMEM was added to 60% confluent HEK293 cells for transfection, and cells grown for 2 days before assays.
(§3) This was performed as previously described. Lummis and Thompson ([2013]) Briefly receptors in crude HEK293 cell membranes were labeled with the 5-HT3R antagonist [^3H]GR65630 by incubation in 0.5 mL 10 mM HEPES buffer pH 7.5 for 1 h on ice, using 1 μM quipazine to determine non-specific binding. Data were analyzed in GraphPad Prism by iterative curve fitting.

5-HT3A receptor M235A = target: T2, 5-HT3A receptor M235A (Mus musculus, UniProt P23979, M262A); experiment: [3H]GR65630 saturation binding, M235A receptor, HEK293 cell membranes; conditions: mean and SEM, n ≥ 3
T2 construct: expressed in transfected cells; host or cells: HEK293
T2 sequence (P23979 24-489 M262A): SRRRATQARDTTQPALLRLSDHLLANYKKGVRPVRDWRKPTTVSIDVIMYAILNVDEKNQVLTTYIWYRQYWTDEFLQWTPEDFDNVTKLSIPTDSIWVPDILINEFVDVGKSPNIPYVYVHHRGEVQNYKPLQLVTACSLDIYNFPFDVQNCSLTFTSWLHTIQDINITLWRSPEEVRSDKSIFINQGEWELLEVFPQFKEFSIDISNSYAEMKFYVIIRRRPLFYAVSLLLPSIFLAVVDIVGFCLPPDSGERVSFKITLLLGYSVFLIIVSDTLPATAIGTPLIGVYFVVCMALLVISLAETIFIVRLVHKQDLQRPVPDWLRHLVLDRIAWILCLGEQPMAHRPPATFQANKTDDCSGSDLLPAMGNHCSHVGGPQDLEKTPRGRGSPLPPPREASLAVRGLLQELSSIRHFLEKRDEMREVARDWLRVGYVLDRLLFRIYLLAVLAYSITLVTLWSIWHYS
Description: as §1, §2, §3

5-HT3A receptor K255L = target: T3, 5-HT3A receptor K255L (Mus musculus, UniProt P23979, K282L); experiment: [3H]GR65630 saturation binding, K255L receptor, HEK293 cell membranes; conditions: mean and SEM, n ≥ 3
T3 construct: expressed in transfected cells
T3 sequence (P23979 24-489 K282L): T2 sequence (P23979 24-489 M262A) with A239M, K259L
Description: as §1, §2, §3

5-HT3A receptor Y441A = target: T4, 5-HT3A receptor Y441A (Mus musculus, UniProt P23979, Y468A); set-up: expressed in transfected cells; method as in Mesoy et al., [2019]; conditions: HEK293 cells, ref Mesoy et al., [2019]; cited from earlier work
T4 sequence (P23979 24-489 Y468A): T2 sequence (P23979 24-489 M262A) with A239M, Y445A

5-HT3A receptor D238A = target: T5, 5-HT3A receptor D238A (Mus musculus, UniProt P23979, D265A); experiment: [3H]GR65630 saturation binding, D238A receptor, HEK293 cell membranes; set-up: expressed in transfected cells; host or cells: HEK293; conditions: mean and SEM, n ≥ 3
T5 sequence (P23979 24-489 D265A): T2 sequence (P23979 24-489 M262A) with A239M, D242A
Description: as §1, §2, §3

5-HT3A receptor C290A = target: T6, 5-HT3A receptor C290A (Mus musculus, UniProt P23979, C317A); experiment: [3H]GR65630 saturation binding, C290A receptor, HEK293 cell membranes; set-up: expressed in transfected cells; host or cells: HEK293; conditions: mean and SEM, n ≥ 3
T6 sequence (P23979 24-489 C317A): T2 sequence (P23979 24-489 M262A) with A239M, C294A
Description: as §1, §2, §3

Structure (SMILES): Cc1[nH]cnc1CCC(=O)c1cn(C)c2ccccc12 [[^3H]GR65630]
- Bmax (WT 5-HT3A receptor): 1.2 ± 0.8 pmol/mg protein
- Kd (WT 5-HT3A receptor): 0.18 ± 0.03 nM
- Bmax (5-HT3A receptor M235A): 2.4 ± 0.4 pmol/mg protein
- Kd (5-HT3A receptor M235A): 0.7 ± 0.09 nM
- Bmax (5-HT3A receptor K255L): 0.4 ± 0.2 pmol/mg protein
- Kd (5-HT3A receptor K255L): 0.17 ± 0.02 nM
- level of [3H]GR65630 binding sites (5-HT3A receptor Y441A): high levels
- Bmax (5-HT3A receptor D238A): 1.8 ± 0.4 pmol/mg protein
- Kd (5-HT3A receptor D238A): 0.5 ± 0.07 nM
- Bmax (5-HT3A receptor C290A): 3.8 ± 0.3 pmol/mg protein
- Kd (5-HT3A receptor C290A): 0.85 ± 0.1 nM
